Patent US20100197789A1, “ANTI-OBESITY AGENT AND USE THEREOF” (National University Corporation Nagoya University, priority 2006, published 2010)

Tested on: DIO mice
Assay: Food intake amount and body weight, 5 week-continuous oral administration, diet-induced obese (DIO) mice
Type: in vivo, mouse
Conditions: (±)-baclofen 5 mg/kg/day, SKF97541 0.3 mg/kg/day, 3-APPA 5 mg/kg/day
Method: 5 week-old male C57BL/6N mice (body weight 17 to 20 g, CLEA Japan, Inc.) were purchased and individually fed in tip cages. To the mice, normal pellet diet (CE-2) was administered under free water intake and free food intake. A body weight and a food intake amount over 24 hours were measured every day from the start of feeding. On day 3 after the start of feeding, blood was taken from an orbit after 6 hour-fasting and a blood glucose level and a blood insulin concentration were measured. The mice were divided into a control group and a baclofen treated group (10 mice per each group) so that a body weight, a 24 hour-food intake amount, a blood glucose level, and a blood insulin concentration were equal, and diet induced-obesity (DIO) was started to be induced by administration of high fat diet (High Fat Diet 32, energy fat ratio 60%, CLEA Japan, Inc.) (DIO mice). At the same time as the start of administering the high fat diet, (±)-baclofen was dissolved in drinking water and 5 week-continuous oral administration was started in a dosage of 5 mg per 1 kg of a body weight in 1 day (5 mg/kg/day). A food intake amount and a body weight were measured over time during the 5 week-administration period. (±)-baclofen (5 mg/kg/day) was orally administered also to C57BL/6N mice (lean mice) that are non-obese mice to which normal diet was administered in the same manner as described above, and a food intake amount and a body weight were measured over time.
5 week-old male C57BL/6N mice (body weight 17 to 20 g, CLEA Japan, Inc.) were purchased and individually fed in tip cages. Normal pellet diet (CE-2) was administered to the mice under free water intake and free food intake. A body weight and a food intake amount over 24 hours were measured every day from the start of feeding. On day 3 after the start of feeding, blood was taken from an orbit after 6 hour-fasting and a blood glucose level and a blood insulin concentration were measured. The mice were divided into a control group, an SKF97541 treated group and a 3-APPA treated group (10 mice per each group) so that a body weight, a 24 hour-food intake amount, a blood glucose level, and a blood insulin concentration were equal, and diet induced-obesity (DIO) was started to be induced by administration of high fat diet (High Fat Diet 32, energy fat ratio 60%, CLEA Japan, Inc.) (DIO mice). At the same time as the start of administering the high fat diet, SKF97541 (0.3 mg/kg/day) or 3-APPA (5 mg/kg/day) was dissolved in drinking water and 5 week-continuous oral administration was started. A food intake amount and a body weight were measured over time during the 5 week-administration period. SKF97541 (0.3 mg/kg/day) or 3-APPA (5 mg/kg/day) was orally administered also to C57BL/6N mice (lean mice) to which normal diet was administered in the same manner as described above, and a food intake amount and a body weight were measured over time.

[1] = DIO mice (high fat diet), oral in drinking water 5 weeks
[2] = DIO mice, continued until 5 weeks

SMILES: NCC(CC(=O)O)c1ccc(Cl)cc1 (racemic) [(±)-baclofen, (RS)-4-amino-3-(4-chlorophenyl)butanoic acid]
- body weight increase [1]: significantly suppressed
- food intake amount [1]: significantly suppressed
- time after start of administration from which body weight increase suppression was significant [2]: 1 week
- time after start of administration from which food intake suppression was significant [2]: 1 week
